Source: patent US6566304B1, “Biogenic control and limitation of the reproduction of parasitic earth nematodes in stock culture” (priority 1998, dated 2003)

Legend:
Assay type in all cases: in vivo
[1] = tested on: nematode Heterodera schachtii; experiment: Example 3 pot test with sugar beet: nematode cysts on roots; conditions: Example 3, sugar beet, 6 weeks; comparators: Aldicarb 1 ppm; fertilized control N/P corresponds to 40 g/m^2 TerraPy G
Protocol: (§1) Sugar beet was pregerminated in a temperature-controlled (18° C.) greenhouse and, at the two-leaf stage, the plants were each transplanted in a plastic pot (9×9 cm) filled with 500 g of a mixture of field soil and sand (1:1). The test substances were applied 2 days after transplanting. One day later, each pot was inoculated with 500 larvae of the nematode Heterodera schachtii. 6 Weeks later, the test was terminated and the density of the nematodes and also the shoot and root weights of the plants were determined.
(§2) The following variants (with 10 repetitions each) were selected for the tests:
(§3) fertilized control (quantity of N/P corresponds to 40 g/m^2 TerraPy G)
(§4) control treated with nematicide (Aldicarb, 1 ppm)

sugar beet = experiment: Example 3 pot test with sugar beet: plant growth
Protocol: as §1, §2, §3, §4

tomatoes [2] = experiment: Example 7 pot test with tomatoes, combination with mycorrhiza: plant growth; conditions: Example 7, tomatoes, 1,500 M. incognita larvae per pot, 9 weeks; Aldicarb 1 ppm; fertilized control N/P corresponds to 2 g/m^2 TerraPy B; TerraPy B 2 g/m^2; mycorrhiza 0.2%
Protocol: (§5) Tomato seeds were planted in plastic pots (9×9 cm) each filled with 320 g of a mixture of field soil and sand (1:1) in a temperature-controlled greenhouse (18° C.). The test substances were applied 29 days after emergence. Two days later, each pot was inoculated with 1,500 larvae of the nematode Meloidogyne incognita. 9 Weeks later, the test was terminated and the density of the nematodes and the shoot and root weights of the plants were determined.
as §2
(§6) fertilized control (quantity of N/P corresponds to 2 g/m^2 TerraPy B)
(§7) nematicide-treated control (Aldicarb, 1 ppm)
(§8) mycorrhiza fungus mixture 0.2%
(§9) TerraPy B 2 g/m^2 plus mycorrhiza 0.2%
(§10) The mycorrhiza fungus mixture contained a mixed population of various Glomus strains of the species Glomus sclerocystis and G. gigasporum with 950 infectious units per cm^3 (=0.64 g per pot). The mixture was mixed with the pot soil after dilution to 0.2% at the beginning of the test.

tomatoes [3] = experiment: Example 6 pot test with tomatoes, reduction of nematicides: plant growth
Protocol: as §1, with “Tomatoes were pregerminated in” for “Sugar beet was pregerminated in”, “inoculated with 1,000 larvae of” for “inoculated with 500 larvae of”, “the nematode Meloidogyne incognita. 6 Weeks” for “the nematode Heterodera schachtii. 6 Weeks”
(§11) The following variants (with 10 repetitions each) were selected for the tests: fertilized control (quantity of N/P corresponds to 40 g/m^2 TerraPy B) control treated with nematicide (Aldicarb, 1 ppm)
(§12) TerraPy B 20 g/m^2 plus Aldicarb 0.1 ppm
(§13) In addition, pots with all the variants mentioned above which had not been inoculated with nematodes were included in the tests.

[4] = tested on: microorganisms (bacteria per g of soil); experiment: Example 4 pot test with tomatoes: soil microorganisms
Protocol: as §1, with “Tomatoes were pregerminated in” for “Sugar beet was pregerminated in”, “inoculated with 1,000 larvae of” for “inoculated with 500 larvae of”, “the nematode Meloidogyne incognita. 8 Weeks later,” for “the nematode Heterodera schachtii. 6 Weeks later,”
as §2
(§14) fertilized control (quantity of N/P corresponds to 40 g/m^2 TerraPy B)
as §4

tomatoes [5] = experiment: Example 5 pot test with tomatoes: plant growth; conditions: Example 5, tomatoes, 1,000 M. incognita larvae per pot, 8 weeks; comparators: Aldicarb 1 ppm; fertilized control N/P corresponds to 40 g/m^2 TerraPy B
Protocol: as §1, with “Tomatoes were pregerminated in” for “Sugar beet was pregerminated in”, “inoculated with 1,000 larvae of” for “inoculated with 500 larvae of”, “the nematode Meloidogyne incognita. 8 Weeks later,” for “the nematode Heterodera schachtii. 6 Weeks later,”
(§15) The following variants (with 8 repetitions each) were selected for the tests:
as §14, §4
(§16) The object of this test was to investigate the smaller effective dose of the product.

[6] = tested on: microorganisms (bacteria per g of soil); experiment: Example 5 pot test with tomatoes: soil microorganisms
Protocol: as §1, with “Tomatoes were pregerminated in” for “Sugar beet was pregerminated in”, “inoculated with 1,000 larvae of” for “inoculated with 500 larvae of”, “the nematode Meloidogyne incognita. 8 Weeks later,” for “the nematode Heterodera schachtii. 6 Weeks later,”
as §15, §14, §4, §16

[7] = tested on: nematode Meloidogyne incognita; experiment: Example 6 pot test with tomatoes, reduction of nematicides: gall index; conditions: Example 6, tomatoes, 6 weeks; Aldicarb 1 ppm; fertilized control N/P corresponds to 40 g/m^2 TerraPy B; TerraPy B 20 g/m^2; TerraPy B 20 g/m^2 plus Aldicarb 0.1 ppm
Protocol: (§17) The gall index is a measure of the damage caused to the root system by the nematodes and is basically a scale of 1 to 10 where 1=undamaged and 10=completely damaged root system.
as §1, with “Tomatoes were pregerminated in” for “Sugar beet was pregerminated in”, “inoculated with 1,000 larvae of” for “inoculated with 500 larvae of”, “the nematode Meloidogyne incognita. 6 Weeks” for “the nematode Heterodera schachtii. 6 Weeks”
as §11, §12, §13

[8] = tested on: microorganisms (bacteria per g of soil); experiment: Example 3 pot test with sugar beet: soil microorganisms
tomatoes [9] = experiment: Example 4 pot test with tomatoes: plant growth
Protocol: as §1, with “Tomatoes were pregerminated in” for “Sugar beet was pregerminated in”, “inoculated with 1,000 larvae of” for “inoculated with 500 larvae of”, “the nematode Meloidogyne incognita. 8 Weeks later,” for “the nematode Heterodera schachtii. 6 Weeks later,”
as §2, §14, §4

[10] = tested on: nematode Meloidogyne incognita; experiment: Example 4 pot test with tomatoes: gall index of root system; conditions: Example 4, tomatoes, 8 weeks; scale 1 to 10 (1=undamaged, 10=completely damaged root system); comparators: Aldicarb 1 ppm; fertilized control N/P corresponds to 40 g/m^2 TerraPy B
Protocol: as §1, with “Tomatoes were pregerminated in” for “Sugar beet was pregerminated in”, “inoculated with 1,000 larvae of” for “inoculated with 500 larvae of”, “the nematode Meloidogyne incognita. 8 Weeks later,” for “the nematode Heterodera schachtii. 6 Weeks later,”
as §2, §14, §4, §17

[11] = tested on: nematode Meloidogyne incognita; experiment: Example 5 pot test with tomatoes: gall index of root system; conditions: Example 5, tomatoes, 8 weeks; scale 1 to 10; comparators: Aldicarb 1 ppm; fertilized control N/P corresponds to 40 g/m^2 TerraPy B
Protocol: as §17
as §1, with “Tomatoes were pregerminated in” for “Sugar beet was pregerminated in”, “inoculated with 1,000 larvae of” for “inoculated with 500 larvae of”, “the nematode Meloidogyne incognita. 8 Weeks later,” for “the nematode Heterodera schachtii. 6 Weeks later,”
as §15, §14, §4, §16

[12] = tested on: nematode Meloidogyne incognita; experiment: Example 7 pot test with tomatoes, combination with mycorrhiza: galls on root system; conditions: Aldicarb 1 ppm, fertilized control N/P corresponds to 2 g/m^2 TerraPy B, TerraPy B 2 g/m^2, mycorrhiza 0.2%
Protocol: as §5, §2, §6, §7, §8, §9, §10

[13] = 2 days, comparators: Aldicarb 1 ppm, fertilized control
[14] = 14 days, comparators: Aldicarb 1 ppm, fertilized control
[15] = 56 days, comparators: Aldicarb 1 ppm, fertilized control
[16] = Example 4, tomatoes, 8 weeks, comparators: Aldicarb 1 ppm, fertilized control N/P corresponds to 40 g/m^2 TerraPy B

## CNC(=O)O/N=C/C(C)(C)SC [Aldicarb]
[1]
  Nematode cysts per g root weight: 15 per g root weight
Sugar beet; Example 3, sugar beet pot test
  plant growth / plant weight, in words: not effective in increasing plant weight
Sugar beet; Example 3, sugar beet, 6 weeks, comparators: Aldicarb 1 ppm, fertilized control N/P corresponds to 40 g/m^2 TerraPy G
  Root weight: 0.7 g
Sugar beet; Example 3, sugar beet, 500 H. schachtii larvae per pot, 6 weeks, comparators: Aldicarb 1 ppm, fertilized control N/P corresponds to 40 g/m^2 TerraPy G
  Shoot weight: 2.1 g
Tomatoes [2]
  Shoot weight: 4.2 g
Tomatoes [3]; Example 6, tomato pot test
  plant growth / plant weight, in words: completely ineffective
Tomatoes [3]; Example 6, tomatoes, 6 weeks, Aldicarb 1 ppm, fertilized control N/P corresponds to 40 g/m^2 TerraPy B, TerraPy B 20 g/m^2, TerraPy B 20 g/m^2 plus Aldicarb 0.1 ppm
  Root weight: 1.8 g
Tomatoes [3]; Example 6, tomatoes, 1,000 M. incognita larvae per pot, 6 weeks, Aldicarb 1 ppm, fertilized control N/P corresponds to 40 g/m^2 TerraPy B, TerraPy B 20 g/m^2, TerraPy B 20 g/m^2 plus Aldicarb 0.1 ppm
  Shoot weight: 3 g
[4]
  effect on bacteria / microorganisms, in words: harmful effect
[4]; [13]
  bacteria per g of soil, 2 Days after application: 1 × 10^7 bacteria per g of soil
[4]; [14]
  bacteria per g of soil, 14 Days after application: 4 × 10^7 bacteria per g of soil
[4]; [15]
  bacteria per g of soil, 56 Days after application: 1 × 10^6 bacteria per g of soil
Tomatoes [5]
  Shoot weight: 4.2 g
[6]
  effect on bacteria / microorganisms, in words: harmful effect
[6]; [13]
  bacteria per g of soil, 2 Days after application: 6 × 10^6 bacteria per g of soil
[6]; [14]
  bacteria per g of soil, 14 Days after application: 1 × 10^6 bacteria per g of soil
[6]; [15]
  bacteria per g of soil, 56 Days after application: 5 × 10^5 bacteria per g of soil
[7]
  Gall index: 0.5
[8]
  effect on bacteria / microorganisms, in words: harmful effect
[8]; [13]
  bacteria per g of soil, 2 Days after application: 7 × 10^6 bacteria per g of soil
[8]; [14]
  bacteria per g of soil, 14 Days after application: 8 × 10^6 bacteria per g of soil
[8]; [15]
  bacteria per g of soil, 56 Days after application: 1 × 10^7 bacteria per g of soil
Tomatoes [9]; Example 4, tomato pot test
  plant growth / plant weight, in words: not effective in increasing plant weight
Tomatoes [9]; [16]
  Root length in cm: 12.0 cm
  Root weight: 1.5 g
Tomatoes [9]; Example 4, tomatoes, 1,000 M. incognita larvae per pot, 8 weeks, comparators: Aldicarb 1 ppm, fertilized control N/P corresponds to 40 g/m^2 TerraPy B
  Shoot weight: 4.7 g
[10]
  Gall index: 3.9
[11]
  Gall index: 4.2
[12]; Example 7, tomatoes, 9 weeks
  Number of galls per root system: 22
[12]; Example 7, unfertilized untreated control = 100%
  Number of galls per root system, In percent: 19%
